Where two headings read alike, the source gives them in different places.
Columns and labels:
Cyt c = target: T1, Cyt c (Equus caballus, UniProt P00004); test: SPR qualitative comparison of peptide bindings to immobilized Cyt c; assay type: binding, Equine heart; conditions: for SPR signal compared to PhNgb1-Wt (qualitative) / binding to Cyt c (qualitative) / binding to Cyt c compared to PhNgb2-Wt (qualitative): SPR sensorgrams, HBS-P+1% DMSO, pH 7.4, 60 s injection; for SPR signal compared to PhNgb1-Wt (qualitative) / binding to Cyt c (qualitative): Fig. 4A; for binding to Cyt c (qualitative): repeated at least two times; for binding to Cyt c compared to PhNgb2-Wt (qualitative): Fig. 4C
T1 construct: Equine heart Cyt c and dimethyl sulfoxide (DMSO) were purchased from Sigma Aldrich; purchased Sigma Aldrich; host or cells: equine heart (tissue-derived, as the product name says)
Description: The peptides were dissolved in 100% DMSO and further diluted in the running buffer (10 mM HEPES pH 7.4, 150 mM NaCl, and 0.05% v/v surfactant P20 supplemented at 1% v/v DMSO) and injected over the Cyt c-immobilized surface at various concentrations.
Equine heart Cyt c and dimethyl sulfoxide (DMSO) were purchased from Sigma Aldrich. The amine coupling kit, Series S sensor chip CM5, and HBS-P+ buffer (0.1 M HEPES, 1.5 M NaCl, and 0.5% v/v surfactant P20) were purchased from GE Healthcare.
The SPR experiments were performed using a Biacore T200 SPR instrument (GE Healthcare). Cyt c, which was used as a ligand, was immobilized onto the CM5 chip up to a level of ~9000 Response Units (RU) in the presence of 10 mM sodium acetate buffer at pH 5.5. A standard amine coupling chemistry according to the manufacturer’s recommended protocol (GE Healthcare) was used to immobilize Cyt c. HBS-P+ buffer was diluted 10X to 10 mM HEPES pH 7.4, 150 mM NaCl, and 0.05% v/v surfactant P20 (HBS-P) in ddH2O and filtered through a […] polystyrene membrane filter. HBS-P was used as the immobilization running buffer. The peptides were used as analytes to inject over the Cyt c-immobilized CM5 chip surface in various concentrations in an HBS-P+1% DMSO buffer. HBS-P+1% DMSO was used as the running buffer in the analyte-ligand binding experiments. […] All analytes were injected in duplicate in each cycle. The kinetics experiments were repeated for three times. All qualitative experiments, including inhibition experiments were repeated at least two times with the wild type peptides injected as positive controls in each experiment.
VMD[34] was used to analyze and visualize the structure and simulation trajectories. The total interaction energy was calculated using NAMD energy plugin available in VMD. Each frame in the NVT simulation trajectory was saved at every 200 ps. An atomic distance of 3.5 Å and angle cutoff of 30 degrees were used to trace hydrogen bonding and the same atomic distance of 3.5 Å was used as the cut off to analyze interfacial contacts and salt bridges. For contacts analysis, only residues that show contacts for more than 1000 frames were considered. Carma[38] was used to determine the radius of gyration (Rg) and to perform PCA as well as PCA-based cluster analyses. GraphPad prism (GraphPad Software, Inc.) was used to generate the graphs. The bonding distances between D73 (in hNgb, atom OD2) and K72 (in Cyt c, atom NZ), T77 (in hNgb, atom OG1) and K72 (in Cyt c, atom NZ), E87 (in hNgb, atom OE2) and K27 (in Cyt c, atom NZ) as well as between E86 (in hNgb, atom OE2) and K27 (in Cyt c, atom NZ) were plotted. All graphs obtained from analyses of MD simulation trajectories were averaged with 25 neighboring points and 4th order smoothing polynomial using the GraphPad prism software. Biacore T200 evaluation software version 1.0 (GE Healthcare) was used to analyze the SPR sensorgrams.

[1] = test system: PhNgb1-Wt binding to Cyt c; test: SPR inhibition experiment: PhNgb1-Wt binding to immobilized Cyt c in presence of PCyt c; design: species or system Equine heart; conditions: mixture of PhNgb1-Wt and PCyt c in 1:2 molar ratio, Fig. 4B, 60 s injection
Description: We conducted SPR experiments with mutated peptides. […] (hNgb) and […] (hNgb) together take part in binding to […] (Cyt c), making a strong bonding as predicted by simulations. We could not perform quantitative investigations (via determination of KD values) for the mutated peptides due to solubility issues at higher concentrations. […] This experiment further confirms the involvement of the predicted amino acid […]) in the hNgb-Cyt c complex formation. […] The SPR experiments were performed using a Biacore T200 SPR instrument (GE Healthcare). Cyt c, which was used as a ligand, was immobilized onto the CM5 chip up to a level of ~9000 Response Units (RU) in the presence of 10 mM sodium acetate buffer at pH 5.5. A standard amine coupling chemistry according to the manufacturer's recommended protocol (GE Healthcare) was used to immobilize Cyt c. HBS-P+ buffer was diluted 10X to 10 mM HEPES pH 7.4, 150 mM NaCl, and 0.05% v/v surfactant P20 (HBS-P) in ddH2O and filtered through a […] polystyrene membrane filter. HBS-P was used as the immobilization running buffer. The peptides were used as analytes to inject over the Cyt c-immobilized CM5 chip surface in various concentrations in an HBS-P+1% DMSO buffer. HBS-P+1% DMSO was used as the running buffer in the analyte-ligand binding experiments. […] All analytes were injected in duplicate in each cycle. […]

ferric Cyt c = conditions: SPR, nanopore-based nanopipettes, ITC; ferric hNgb and ferric Cyt c; cited from earlier work
Source text: Electrochemical impedance spectroscopy measurements have also confirmed the formation of an hNgb-Cyt c complex. Computational docking is useful to investigate the complex formation between proteins. Several computational docking studies have bee ...

caspase 9 activation = conditions: binding of Ngb to Cyt c alone, no redox reaction required, cited from earlier work
Source text: Cytochrome c (Cyt c), which is another heme protein[13], is a known Ngb binding partner[12],[14]. This mitochondrial heme protein triggers cell apoptosis during apoptotic cell signaling. During ischemic insults, the cellular apoptotic pathway is activated, leading to the release of ferric Cyt c, which is an essential component of the apoptosome, into the cytoplasm[16]–[18]. […] Importantly, this K72 residue takes part in interactions of Cyt c with apoptotic protease-activation factor-1[31]. […] There ...

T1 sequence (P00004 whole entry): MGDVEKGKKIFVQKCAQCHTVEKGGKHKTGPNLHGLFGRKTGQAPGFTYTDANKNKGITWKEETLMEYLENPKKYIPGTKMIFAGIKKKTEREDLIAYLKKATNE

Molecule | SPR signal compared to PhNgb1-Wt (qualitative) (Cyt c) | binding to Cyt c (qualitative) (Cyt c) | binding to Cyt c compared to PhNgb2-Wt (qualitative) (Cyt c) | further results
LENPKKYIP [PCyt c, peptide with amino acids L68 to P76 in Cyt c] | – | – | – | binding of PCyt c to immobilized Cyt c (qualitative) (Cyt c; SPR): does not bind to immobilized Cyt c; inhibition of PhNgb1-Wt binding (qualitative) [1]: diminished signal as compared to PhNgb1-Wt signal
MLVIAAAVTNVED [PhNgb1-M2] | weaker SPR signals as compared to SPR signals for PhNgb1-Wt | bind to Cyt c | – | –
MLVIDAAVANVED [PhNgb1-M1] | weaker SPR signals as compared to SPR signals for PhNgb1-Wt | bind to Cyt c | – | –
SSLAAYLAS [PhNgb2-M2] | – | – | comparable binding | –
SSLEAYLAS [PhNgb2-M1] | – | – | stronger binding | –
hNgb: ferric human Ngb; six-coordinated heme protein; PDB ID 4MPM (Chain B) (protein, UniProt Q9NPG2 1-151, looked up, ferric heme) Neuroglobin: MERPEPELIRQSWRAVSRSPLEHGTVLFARLFALEPDLLPLFQYNCRQFSSPEDCLSSPEFLDHIRKVMLVIDAAVTNVEDLSSLEEYLASLGRKHRAVGVKLSSFSTVGESLLYMLEKCLGPAFTPATRAAWSQLYGAVVQAMSRGWDGE | – | – | – | affinity to ferric Cyt c (ferric Cyt c): micromolar affinity; effect on caspase 9 activation (caspase 9 activation): enough to suppress caspase-9 activation; effect on caspase 9 activation (caspase 9 activation; listed as Ngb): sufficient to block the Cyt c-induced caspase 9 activation

Source: paper PMC6043506, “Investigating molecular interactions between oxidized neuroglobin and cytochrome c” (Scientific Reports, 2018)
